Test results published in US10669246B2, “Benzothiazol compounds and methods using the same for treating neurodegenerative disorders” (1ST Biotherapeutics, Inc., priority 2017, dated 2020).

Tests used:
Recombinant human c-Kit = Recombinant human c-Kit (Homo sapiens (Human), UniProt P10721); test: c-KIT kinase assay (ADP-Glo); format: biochemical; conditions: Table 3, kinase selectivity
Method: ADP-Glo assay kit was purchased from Promega. Magnesium chloride (MgCl2), Manganese(II) chloride (MnCl2), Bovine serum albumin (BSA) and dimethylsulfoxide (DMSO) were purchased from Sigma-Aldrich. Tris-HCl buffer was purchased from Biosesang. c-Kit kinase and Poly (4:1 Glu, Tyr) Peptide were purchased from Signalchem.
c-Kit kinase activity was measured by Promega's ADP-Glo™ Assay.

in vivo = conditions: male, ICR, mouse, po, 5 mg/kg
[1] = tested on: Phosphorylation of α-synuclein at ser129; test: Phosphorylation of α-synuclein in α-synuclein PFF induced PD model; format: in vivo, mice; conditions: q.d.; for reduction of phosphorylation of α-synuclein at ser129: oral
Aβ25-35 induced AD mice [2] = test: Y-maze spontaneous alternation in Aβ25-35 induced AD mice; format: in vivo; conditions: orally once daily for 10 days; Example 4 1, 3 and 10 mg/kg, nilotinib 3 mg/kg
Text: Y-maze test as a behavioral test was used to assess memory function and the willingness of rodents to explore new environments ICV injection of oligomeric Aβ25-35 peptide triggered neurotoxic effects and behavioral deficit in Y-maze test evaluating short term memory, by measurement of spontaneous alternation, while any change of motor symptom was not observed by measurement of locomotion.

[3] = tested on: α-synuclein PFF induced PD mice; test: Pole test in α-synuclein PFF induced PD mice; format: in vivo
Aβ25-35 induced AD mice [4] = test: Step-through passive avoidance (STPA) test in Aβ25-35 induced AD mice; format: in vivo; conditions: orally once daily for 10 days; Example 4 1, 3 and 10 mg/kg, nilotinib 3 mg/kg
Aβ25-35 induced AD mice [5] = test: Lipid peroxidation in hippocampus homogenates of Aβ25-35 injected mice; format: in vivo; conditions: once daily oral dosing of 3 mg/kg and 10 mg/kg
Text: 10 Days after ICV injection of oligomeric Aβ25-35 peptide, the hippocampus was dissected out. And lipid peroxidation level was quantified in the hippocampus homogenates. ICV injection of oligomeric Aβ25-35 peptide induced lipid peroxidation, a marker for oxidative stress. […] (FIG. 7)

[6] = Oral dose pharmacokinetic study in mice; conditions: for brain exposure compared with nilotinib: oral 5 mg/kg
[7] = tested on: PFF-induced neuronal toxicity; test: PFF-induced neuronal toxicity; format: cell-based; conditions: dose: 0.5, 1, 5, 10, 100 nM
[8] = tested on: α-synuclein PFF-induced pathologic aggregation (Lewy body-like pathology); test: α-synuclein PFF-induced pathologic aggregation; format: cell-based
hERG = hERG (Homo sapiens (Human), UniProt Q12809); test: hERG activity
[9] = 10 mg/kg orally once daily for 5 months

Recombinant human c-Kit, sequence (P10721 26-976): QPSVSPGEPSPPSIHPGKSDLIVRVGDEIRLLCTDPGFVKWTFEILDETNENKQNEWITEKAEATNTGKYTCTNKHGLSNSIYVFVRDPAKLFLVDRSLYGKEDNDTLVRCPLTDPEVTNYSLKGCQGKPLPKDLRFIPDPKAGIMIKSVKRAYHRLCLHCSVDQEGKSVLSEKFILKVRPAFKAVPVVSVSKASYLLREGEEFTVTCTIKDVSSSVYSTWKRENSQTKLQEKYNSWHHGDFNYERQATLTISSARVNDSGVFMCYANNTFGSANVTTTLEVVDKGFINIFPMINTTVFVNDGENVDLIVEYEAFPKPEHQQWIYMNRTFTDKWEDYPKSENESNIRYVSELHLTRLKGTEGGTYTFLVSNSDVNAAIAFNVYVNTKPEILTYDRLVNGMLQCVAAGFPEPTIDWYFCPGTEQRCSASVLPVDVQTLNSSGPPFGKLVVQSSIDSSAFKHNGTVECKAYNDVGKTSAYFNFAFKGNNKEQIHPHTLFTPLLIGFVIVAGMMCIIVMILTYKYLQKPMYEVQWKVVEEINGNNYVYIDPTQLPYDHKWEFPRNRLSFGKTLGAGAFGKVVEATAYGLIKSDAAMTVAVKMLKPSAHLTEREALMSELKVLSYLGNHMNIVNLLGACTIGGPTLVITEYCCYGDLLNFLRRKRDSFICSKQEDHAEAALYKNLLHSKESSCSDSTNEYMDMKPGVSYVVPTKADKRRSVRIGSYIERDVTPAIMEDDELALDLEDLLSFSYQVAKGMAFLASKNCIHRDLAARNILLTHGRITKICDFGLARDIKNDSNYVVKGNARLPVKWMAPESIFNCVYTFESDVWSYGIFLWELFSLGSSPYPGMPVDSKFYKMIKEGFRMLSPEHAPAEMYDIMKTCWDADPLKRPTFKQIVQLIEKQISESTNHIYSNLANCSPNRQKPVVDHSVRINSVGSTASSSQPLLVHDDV
hERG, sequence (Q12809 whole entry): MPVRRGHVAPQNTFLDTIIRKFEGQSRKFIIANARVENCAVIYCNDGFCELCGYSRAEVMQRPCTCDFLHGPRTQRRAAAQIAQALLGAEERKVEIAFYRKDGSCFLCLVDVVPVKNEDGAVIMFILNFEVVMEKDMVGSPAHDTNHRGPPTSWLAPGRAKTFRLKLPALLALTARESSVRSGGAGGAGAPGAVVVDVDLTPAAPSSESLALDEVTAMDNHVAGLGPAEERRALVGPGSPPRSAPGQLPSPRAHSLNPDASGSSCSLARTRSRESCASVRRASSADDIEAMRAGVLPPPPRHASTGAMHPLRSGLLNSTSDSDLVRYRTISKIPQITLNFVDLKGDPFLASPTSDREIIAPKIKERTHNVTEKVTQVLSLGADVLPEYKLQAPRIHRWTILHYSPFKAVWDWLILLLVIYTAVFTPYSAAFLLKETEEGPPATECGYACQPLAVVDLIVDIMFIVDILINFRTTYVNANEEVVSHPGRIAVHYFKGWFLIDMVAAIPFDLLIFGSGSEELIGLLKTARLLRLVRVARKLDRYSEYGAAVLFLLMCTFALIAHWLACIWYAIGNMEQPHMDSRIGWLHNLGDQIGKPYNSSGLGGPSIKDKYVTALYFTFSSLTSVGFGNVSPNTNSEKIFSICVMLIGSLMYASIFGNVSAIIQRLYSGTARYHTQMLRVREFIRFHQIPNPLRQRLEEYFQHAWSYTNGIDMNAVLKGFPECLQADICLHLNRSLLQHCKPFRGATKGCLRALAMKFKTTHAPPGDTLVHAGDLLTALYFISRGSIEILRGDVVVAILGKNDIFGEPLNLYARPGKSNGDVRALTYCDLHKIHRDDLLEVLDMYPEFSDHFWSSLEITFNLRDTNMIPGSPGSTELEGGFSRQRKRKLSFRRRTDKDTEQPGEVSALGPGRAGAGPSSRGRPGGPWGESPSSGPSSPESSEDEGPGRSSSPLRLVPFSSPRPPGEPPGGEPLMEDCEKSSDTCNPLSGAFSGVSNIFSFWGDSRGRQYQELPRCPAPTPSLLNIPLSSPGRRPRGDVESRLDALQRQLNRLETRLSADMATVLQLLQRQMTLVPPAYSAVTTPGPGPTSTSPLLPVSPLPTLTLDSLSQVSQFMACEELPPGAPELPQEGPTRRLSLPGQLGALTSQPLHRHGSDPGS

For `C=C(C)c1ccc(C)c(-c2ccc3nc(NC(=O)[C@@H]4C[C@@H]4F)sc3c2)c1` [Example 17, (1S,2S)-2-fluoro-N-(6-(2-methyl-5-(prop-1-en-2-yl)phenyl)benzo[d]thiazol-2-yl)cyclopropane-1-carboxamide], which IC50 (Recombinant human c-Kit) is on record?
Its IC50 is greater than 10000 nM.

With `Cc1ccncc1-c1ccc2nc(NC(=O)C3CC3)sc2c1` [Example 5, N-(6-(4-methylpyridin-3-yl)benzo[d]thiazol-2-yl)cyclopropanecarboxamide] as the compound, how does the AUC(0-inf) (in vivo; brain) read?
Its AUC(0-inf) is 1980 ng·h/mL.

What about the AUC(0-inf) (in vivo; plasma) of the same compound?
The AUC(0-inf) was 8480 ng·h/mL.

For `Cc1cn(-c2cc(NC(=O)c3ccc(C)c(Nc4nccc(-c5cccnc5)n4)c3)cc(C(F)(F)F)c2)cn1` [Nilotinib, nilotinib, reference compound], which “effect on phosphorylation of α-synuclein” value ([1]; 3 and 10 mg/kg) is on record?
Its value is “not effective”.

And the “deficits of alternation behavior (spatial working memory)” value (Aβ25-35 induced AD mice [2])?
The value was “partially alleviated”.

And the “pole climb down time” value [3, 9]?
The value was “just a slight improvement”.

And the “contextual long-term memory deficits” value (Aβ25-35 induced AD mice [4])?
The value was “no significant effect”.

For `Cc1ccncc1-c1ccc2nc(NC(=O)[C@@H]3C[C@@H]3F)sc2c1` [Example 4, (1S,2S)-2-fluoro-N-(6-(4-methylpyridin-3-yl)benzo[d]thiazol-2-yl)cyclopropane-1-carboxamide], which “reduction of phosphorylation of α-synuclein at ser129” value ([1]; 3 mg/kg) is on record?
The value was “about 50%”.

And the “reduction of phosphorylation of α-synuclein at ser129” value ([1]; 10 mg/kg)?
Its value is roughly 80%.

And the “lipid peroxidation (oxidative stress marker) in hippocampus” value (Aβ25-35 induced AD mice [5])?
The value was “completely inhibited”.

What about the “deficits of alternation behavior (spatial working memory)” value (Aβ25-35 induced AD mice [2]) of the same compound?
Its value is “very significantly and fully alleviated”.

What about the “improvement of pole climb down time” value ([3]; 0.3 mg/kg orally once daily for 5 months) of the same compound?
Its value is 50%.

What about the “pole climb down time” value [3, 9] of the same compound?
The value was “completely recovered”.

What about the “pole climb down time” value ([3]; 0.3, 1, 3 and 10 mg/kg orally once daily for 5 months) of the same compound?
The value was “recovered by treatment of Example 4 in a dose-dependent manner”.

And the PK profile [6]?
Its PK profile is “good PK profiles”.

And the AUCINF ([6]; PO 5 mg/kg, Table 5)?
Its AUCINF is 682041.7 ng·min/mL.

What about the “brain exposure compared with nilotinib” value [6] of the same compound?
Its value is “better brain exposure than nilotinib”.

What about the PFF-induced neuronal toxicity [7] of the same compound?
Its PFF-induced neuronal toxicity is “inhibited PFF-induced neuronal toxicity in a dose dependent manner”.

What about the “α-synuclein PFF-induced pathologic aggregation (Lewy body-like pathology)” value [8] of the same compound?
The value was “decreased”.

And the “contextual long-term memory deficits” value (Aβ25-35 induced AD mice [4])?
The value was “very significantly and fully alleviated”.

And the AUC(0-inf) (in vivo; brain)?
Its AUC(0-inf) is 4140 ng·h/mL.

What about the AUC(0-inf) (in vivo; plasma) of the same compound?
Its AUC(0-inf) is 11400 ng·h/mL.

What about the Cmax (in vivo; plasma) of the same compound?
The Cmax was 3590 ng/mL.

What about the Tmax (in vivo; plasma) of the same compound?
Its Tmax is 30 min.

What does the source list for `Cc1c(F)cncc1-c1ccc2nc(NC(=O)[C@@H]3C[C@@H]3F)sc2c1` [Example 8, (1S,2S)-2-fluoro-N-(6-(5-fluoro-4-methylpyridin-3-yl)benzo[d]thiazol-2-yl)cyclopropane-1-carboxamide]?
PK profile [6]: good PK profiles; brain exposure compared with nilotinib [6]: better brain exposure than nilotinib; Cmax (in vivo; plasma): 4170 ng/mL; Tmax (in vivo; plasma): 60 min; inhibition at 10 µM (hERG): 12.6%

With `Cc1c(O)cccc1-c1ccc2nc(NC(=O)[C@@H]3C[C@@H]3F)sc2c1` [Example 22, (1S,2S)-2-fluoro-N-(6-(3-hydroxy-2-methylphenyl)benzo[d]thiazol-2-yl)cyclopropane-1-carboxamide] as the compound, how does the IC50 (Recombinant human c-Kit) read?
Its IC50 is 1020 nM.

For `Cc1ccc(O)cc1-c1ccc2nc(NC(=O)[C@@H]3C[C@@H]3F)sc2c1` [Example 14, (1S,2S)-2-fluoro-N-(6-(5-hydroxy-2-methylphenyl)benzo[d]thiazol-2-yl)cyclopropane-1-carboxamide], which IC50 (Recombinant human c-Kit) is on record?
Its IC50 is 1340 nM.

For `Cc1ccncc1-c1ccc2sc(NC(=O)[C@@H]3C[C@@H]3F)nc2c1` [Example 6, (1S,2S)-2-fluoro-N-(5-(4-methylpyridin-3-yl)benzo[d]thiazol-2-yl)cyclopropane-1-carboxamide], which AUC(0-inf) (in vivo; brain) is on record?
The AUC(0-inf) was 3950 ng·h/mL.

What about the Kp (in vivo; brain/plasma) of the same compound?
The Kp was 0.5.

What about the AUC(0-inf) (in vivo; plasma) of the same compound?
Its AUC(0-inf) is 4860 ng·h/mL.
